Consider 20 compounds from patent US8501794B2, “Compounds as cannabinoid receptor ligands” (priority 2007, dated 2013).

Molecules are shown by their SMILES. pEC50, pKi: −log10 of the molar value.

For test [1], the target named is T1, human CB2 receptors (Homo sapiens, UniProt P34972).
T1 construct: expressed in transfected cells; host or cells: HEK293
As to the kind of experiment: human CB2 radioligand binding assay ([3H]CP-55,940 competition).

The target in test [2] is T2, rat CB2 (Rattus norvegicus, UniProt Q9QZN9).
T2 sequence (Q9QZN9 1-360): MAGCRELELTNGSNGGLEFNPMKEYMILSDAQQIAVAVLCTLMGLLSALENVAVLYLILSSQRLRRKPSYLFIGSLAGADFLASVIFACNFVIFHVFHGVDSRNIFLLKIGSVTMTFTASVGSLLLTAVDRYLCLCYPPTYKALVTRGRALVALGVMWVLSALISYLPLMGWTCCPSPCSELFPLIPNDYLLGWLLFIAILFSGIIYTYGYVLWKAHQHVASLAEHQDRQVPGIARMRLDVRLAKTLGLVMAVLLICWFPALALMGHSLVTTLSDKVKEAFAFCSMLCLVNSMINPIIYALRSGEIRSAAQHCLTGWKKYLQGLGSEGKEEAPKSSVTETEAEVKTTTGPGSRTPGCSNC
As to the kind of experiment: rat CB2 cyclase functional assay (HitHunter cAMP, HEK cells). Type of test: cell-based. Also noted: expressed in transfected cells; host or cells: HEK. Particulars: forskolin 18 μM.

Test [3] deals with T2, rat CB2. As to the kind of experiment: rat CB2 radioligand binding assay ([3H]CP-55,940 competition). More on the design: expressed in transfected cells; host or cells: HEK293.

T1 sequence (P34972 whole entry): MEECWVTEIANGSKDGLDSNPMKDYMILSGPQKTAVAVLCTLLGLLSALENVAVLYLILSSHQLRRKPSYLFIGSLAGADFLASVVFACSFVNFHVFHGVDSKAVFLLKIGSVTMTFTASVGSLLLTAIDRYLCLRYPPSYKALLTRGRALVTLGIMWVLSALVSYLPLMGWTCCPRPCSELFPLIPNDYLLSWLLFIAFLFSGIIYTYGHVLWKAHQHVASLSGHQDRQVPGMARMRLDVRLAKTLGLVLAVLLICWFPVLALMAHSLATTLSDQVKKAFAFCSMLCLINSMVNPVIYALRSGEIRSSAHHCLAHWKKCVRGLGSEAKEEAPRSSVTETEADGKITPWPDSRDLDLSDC

As to `CC/C=C\c1cn(C(C)(C)C)s/c1=N\C(=O)c1cc(Cl)ccc1OC` [Example 25, N-[(5Z)-4-[(1Z)-but-1-enyl]-2-tert-butylisothiazol-5(2H)-ylidene]-5-chloro-2-methoxybenzamide], the pKi was 7.29 in test [1] and 8.80 in test [3]. In addition, the pEC50 in test [2] is 8.77.
In the case of `CCOc1ccc(C(F)(F)F)cc1C(=O)/N=c1\sn(C(C)(C)C)cc1CC(C)C` [Example 146, N-[(5Z)-2-tert-butyl-4-isobutylisothiazol-5(2H)-ylidene]-2-ethoxy-5-(trifluoromethyl)benzamide], the pKi in test [1] is 7.62; in test [3], 8.51. The pEC50 in test [2] is 9.54.
Regarding `CCCCc1cn(C(C)(C)C)s/c1=N\C(=O)[C@]1(C)CC[C@H](C(=O)OC)C1(C)C` [Example 177, Methyl (1S,3R)-3-({[(5Z)-4-butyl-2-tert-butylisothiazol-5(2H)-ylidene]amino}carbonyl)-2,2,3-trimethylcyclopentanecarboxylate], the pKi in test [1] was 9.80; in test [3], 10.00. In test [2], this compound gave a pEC50 of 9.82.
With `COc1ccc(Cl)cc1C(=O)/N=c1\sn(C(C)(C)C)cc1CC1CCCO1` (stereo not drawn) [Example 67, N-[(5Z)-2-tert-butyl-4-(tetrahydrofuran-2-ylmethyl)isothiazol-5(2H)-ylidene]-5-chloro-2-methoxybenzamide], the pKi in test [1] is 7.49; in test [3], 8.52. The compound further showed a pEC50 in test [2] of 8.43.
Regarding `CCCCc1cn(C(C)(C)C)s/c1=N\C(=O)c1cc(C(C)=O)ccc1OC` [Example 64, 5-acetyl-N-[(5Z)-4-butyl-2-tert-butylisothiazol-5(2H)-ylidene]-2-methoxybenzamide], the pKi was 7.85 in test [1] and 9.20 in test [3]. In test [2], this compound showed a pEC50 of 10.30.
Consider `COc1ccc(Cl)cc1C(=O)/N=c1\sn(C(C)(C)C)cc1CC1CCCC1` [Example 136, N-[(5Z)-2-tert-butyl-4-(cyclopentylmethyl)isothiazol-5(2H)-ylidene]-5-chloro-2-methoxybenzamide], for which the pKi in test [1] was 8.72; in test [3], 9.29. The compound also gave a pEC50 in test [2] of 10.29.
Consider `COc1ccc(Cl)cc1C(=O)/N=c1\sn(C(C)(C)C)cc1OCCCCF` [Example 158, N-[(5Z)-2-tert-butyl-4-(4-fluorobutoxy)isothiazol-5(2H)-ylidene]-5-chloro-2-methoxybenzamide], for which the results for the pKi in test [1] and in test [3] were 7.32 and 8.21, respectively. This compound showed a pEC50 in test [2] of 10.34.
Take `CCCCc1cn(C(C)(C)C)s/c1=N\C(=O)c1cc(Cl)ccc1OCC#N` [Example 153, N-[(5Z)-4-butyl-2-tert-butylisothiazol-5(2H)-ylidene]-5-chloro-2-(cyanomethoxy)benzamide]: the values for the pKi in test [1] and in test [3] were 7.89 and 8.68, respectively. This compound also had a pEC50 in test [2] of 10.21.
Turning to `CCCCc1cn(C(C)(C)C)s/c1=N\C(=O)[C@@]1(C)CC[C@@H](C(=O)OCC)C1(C)C` [Example 176, Ethyl (1R,3S)-3-({[(5Z)-4-butyl-2-tert-butylisothiazol-5(2H)-ylidene]amino}carbonyl)-2,2,3-trimethylcyclopentanecarboxylate], the pKi in test [1] is 7.80; in test [3], 8.15. The compound also showed a pEC50 in test [2] of 8.96.
With `CCCCc1cn(C(C)(C)C)s/c1=N\C(=O)C1C(C)(C)C1(C)C` [Example 121, N-[(5Z)-4-butyl-2-tert-butylisothiazol-5(2H)-ylidene]-2,2,3,3-tetramethylcyclopropanecarboxamide], the pKi in test [1] was 9.10; in test [3] it was 9.28. The compound further showed a pEC50 in test [2] of 9.48.
For `CCCCc1cn(C(C)(C)C)s/c1=N\C(=O)[C@@]1(C)CC[C@@H](C(=O)N2CCC2)C1(C)C` [Example 222, (1S,3R)-3-(azetidin-1-ylcarbonyl)-N-[(5Z)-4-butyl-2-tert-butylisothiazol-5(2H)-ylidene]-1,2,2-trimethylcyclopentanecarboxamide], the pKi is 6.77 in test [1] and 7.15 in test [3]. Also, in test [2], the pEC50 is 8.24.
As for `COc1ccc(Cl)cc1C(=O)/N=c1\sn(C(C)(C)C)cc1CCCC(C)(C)O` [Example 80, N-[(5Z)-2-tert-butyl-4-(4-hydroxy-4-methylpentyl)isothiazol-5(2H)-ylidene]-5-chloro-2-methoxybenzamide], the pKi in test [1] is 7.13; in test [3] it was 8.07. The compound also gave a pEC50 in test [2] of 10.34.
Consider `CCCCCc1cn(C(C)(C)C)s/c1=N\C(=O)c1cc(Cl)ccc1OC` [Example 147, N-[(5Z)-2-tert-butyl-4-pentylisothiazol-5(2H)-ylidene]-5-chloro-2-methoxybenzamide], for which the pKi in test [1] is 8.80; in test [3], 9.82. Further, the pEC50 in test [2] is 10.21.
For the compound `COc1ccc(Cl)cc1C(=O)/N=c1\sn(C(C)(C)C)cc1COC(C)C` [Example 72, N-[(5Z)-2-tert-butyl-4-(isopropoxymethyl)isothiazol-5(2H)-ylidene]-5-chloro-2-methoxybenzamide], the negative logarithm of the Ki (pKi) in test [1] is 7.72; in test [3], 8.13. The pEC50 in test [2] is 10.27.
Taken in the same sequence, the figures for `CCCCc1cn(C(C)(C)C)s/c1=N\C(=O)c1cc(C#N)ccc1OC` [Example 26, N-[(5Z)-4-butyl-2-tert-butylisothiazol-5(2H)-ylidene]-5-cyano-2-methoxybenzamide] were 7.85, 9.00 and 9.64.
With `CCCCc1cn(C(C)(C)C)s/c1=N\C(=O)c1cc(C(F)(F)F)ccc1OC[C@@H]1CCCN1C` [Example 192, N-[(5Z)-4-butyl-2-tert-butylisothiazol-5(2H)-ylidene]-2-{[(2S)-1-methylpyrrolidin-2-yl]methoxy}-5-(trifluoromethyl)benzamide], the pKi in test [1] was 7.34; in test [3], 7.74. Also, in test [2], the negative logarithm of the EC50 (pEC50) was 8.47.
Taken in the same sequence, the figures for `COc1ccc(Cl)cc1C(=O)/N=c1\sn(C(C)(C)C)cc1CCC(C)(C)C#N` [Example 137, N-[(5Z)-2-tert-butyl-4-(3-cyano-3-methylbutyl)isothiazol-5(2H)-ylidene]-5-chloro-2-methoxybenzamide] were 8.12, 8.59 and 8.66.
Taken in the same sequence, the figures for `CC(C)Cc1cn(C(C)(C)C)s/c1=N\C(=O)c1cc(Cl)ccc1OCCF` [Example 144, N-[(5Z)-2-tert-butyl-4-isobutylisothiazol-5(2H)-ylidene]-5-chloro-2-(2-fluoroethoxy)benzamide] were 8.06, 8.92 and 10.00.
With `CC(C)(C)n1cc(CCCC#N)/c(=N/C(=O)c2cc(Cl)ccc2OCC(F)(F)F)s1` [Example 133, N-[(5Z)-2-tert-butyl-4-(3-cyanopropyl)isothiazol-5(2H)-ylidene]-5-chloro-2-(2,2,2-trifluoroethoxy)benzamide], the pKi in test [1] was 7.82; in test [3] it was 8.96. The compound further gave a pEC50 in test [2] of 8.85.
As to `COc1ccc(Cl)cc1C(=O)/N=c1\sn(C(C)(C)C)cc1C(O)C(C)C` (stereo not drawn) [Example 23, N-[(5Z)-2-tert-butyl-4-(1-hydroxy-2-methylpropyl)isothiazol-5(2H)-ylidene]-5-chloro-2-methoxybenzamide], the pKi in test [1] was 7.85; in test [3] it was 8.57. This compound also gave a pEC50 in test [2] of 9.05.
